The nature of data set [1]: Perfused brain radiometabolite analysis (30 min p.i.). The format is in vivo, Wistar rats. How it is done: The relative amounts of parent tracer and radiometabolites in perfused cerebellum and cerebrum at 30 min p.i. of the tracer was determined in healthy male Wistar rats for [^11C]B-4, [^11C]B-2, [^11C]B-7, and [^11C]B-10. After i.v. administration of about 74 MBq of the radioligand via tail vein under anesthesia (2.5% Isoflurane in O2 at 1 L/min flow rate), rats were sacrificed by administering an overdose of Nembutal (CEVA Santé Animale, 200 mg/kg intraperitoneal). When breathing had stopped, the rats were perfused with saline (Mini Plasco®, Braun, Melsungen, Germany) until the liver turned pale. Brain was isolated, cerebrum and cerebellum were separated and homogenized in 3 mL and 2 mL of CH3CN, respectively, for about 2 min. A volume of 1 mL of this homogenate was diluted with an equal volume of water and a part of this homogenate was filtered through a 0.22 μm filter (Millipore, Bedford, USA). About 0.5 mL of the filtrate was diluted with 0.1 mL of water and spiked with 10 μg of authentic non-radioactive compound (1 mg/mL solution) for identification of the intact tracer. The cerebrum/cerebellum extract was then injected onto an HPLC system consisting of an analytical XBridge® column (C18, 5 μM, 3 mm×100 mm, Waters) eluted with a mixture of 0.05 M NaOAc buffer (pH 5.5) and CH3CN (60:40 v/v) at a flow rate of 0.8 mL/min. The HPLC eluate was collected as 1 mL fractions (fraction collection each minute) after passing through the UV detector (254 nm), and the radioactivity in the fractions was measured using an automated gamma counter.

The nature of data set [2]: Plasma radiometabolite analysis (30 min p.i.). The settings on record: n = 2. The format is in vivo, Wistar rats. On the procedure: The metabolic stability of [^11C]B-4, [^11C]B-2, [^11C]B-7, and [^11C]B-10 was studied in healthy male Wistar rats by determination of the relative amounts of parent tracer and radiometabolites in plasma at 30 min p.i. of the tracer. After intravenous (i.v.) administration of about 74 MBq of the radioligand via tail vein under anesthesia (2.5% Isoflurane in O2 at 1 L/min flow rate), rats were sacrificed by decapitation at 30 min p.i. (n=2). Blood was collected in heparin containing tubes (4.5 mL LH PST tubes; BD vacutainer, BD, Franklin Lakes, N.J., USA) and stored on ice to stop the metabolism. Next, the blood was centrifuged for 5 min at 3000 rpm to separate the plasma. About 0.5 mL of plasma was spiked with about 10 μg of the authentic non-radioactive compound (1 mg/mL solution) and injected on to HPLC, which was connected to a Chromolith® performance column (C18, 3 mm×100 mm, Merck KGaA, Darmstadt, Germany). The mobile phase consisted of 0.05 M NaOAc buffer (pH 5.5) (solution A) and CH3CN (solvent B). The following method was used for the analysis: isocratic elution with 100% A for 4 min at a flow rate of 0.5 mL/min, linear gradient to 90% B by 9 min at a flow rate of 1 mL/min, and isocratic elution with mixture of 10% A and 90% B until 12 min. After passing through the UV detector (254 nm), the HPLC eluate was collected as 1 mL fractions (fraction collection each minute) using an automatic fraction collector and the radioactivity of these fractions was measured using an automated gamma counter.

Several values for one entry are separate records, joined by “and”; a condition that tells them apart may be missing. Identical values can stand only once.

The results in this text go back to US20130230459A1, “RADIOLABELLED mGluR2 PET LIGANDS” (Janssen Pharmaceuticals, Inc., priority 2010, published 2013).

Turning to `[11CH3]Oc1c(F)ccc(F)c1C1CCN(c2ccn3c(CC4CC4)nnc3c2Cl)CC1` [[^11C]B-2, 8-chloro-3-(cyclopropylmethyl)-7-[4-(3,6-difluoro-2-[^11C]methoxyphenyl)-1-piperidinyl]-1,2,4-triazolo[4,3-a]pyridine], in data set [1], the “intact tracer in perfused cerebellum” value is 95.5 ± 1.3%, the “intact tracer in perfused cerebrum” value is 90.3 ± 0.3%, the “polar metabolite in perfused cerebellum” value was 4.1 ± 1.5% and the “polar metabolite in perfused cerebrum” value is recorded as 9.7 ± 0.3%. In addition, the “recovered radioactivity present as intact tracer, on average, in both cerebrum and cerebellum” value (shortened to “recovered radioactivity present”) in data set [1] is “about 90%”. Besides, in data set [2], the “Intact tracer in rat plasma” value was 70% and 69.7 ± 5.1%; the “Polar metabolites in rat plasma” value was found to be 30.3 ± 5.1%.
As to `[11CH3]Oc1cc(F)cc(F)c1C1CCN(c2ccn3c(CC4CC4)nnc3c2Cl)CC1` [[^11C]B-7, 8-chloro-3-(cyclopropylmethyl)-7-[4-[2,4-difluoro-6-[^11C]methoxyphenyl]-1-piperidinyl]-1,2,4-triazolo[4,3-a]pyridine], in data set [1], the “intact tracer in perfused cerebellum” value was 95.5%, the “intact tracer in perfused cerebrum” value is 92.9%, the “polar metabolite in perfused cerebellum” value is given as 4.5% and the “polar metabolite in perfused cerebrum” value worked out at 7.1%. Further, in data set [1], the “recovered radioactivity present” value is “about 90%”. Moreover, in data set [2], the “Intact tracer in rat plasma” value was 30.8 ± 7.0% and the “Polar metabolites in rat plasma” value was determined as 69.2 ± 7.0%.
For `[11CH3]Oc1ccc(F)c(F)c1C1CCN(c2ccn3c(CC4CC4)nnc3c2Cl)CC1` [[^11C]B-10, 8-chloro-3-(cyclopropylmethyl)-7-[4-[2,3-difluoro-6-[^11C]methoxyphenyl]-1-piperidinyl]-1,2,4-triazolo[4,3-a]pyridine], in data set [1], the “intact tracer in perfused cerebellum” value is 96.4%, the “intact tracer in perfused cerebrum” value is 93.1%, the “polar metabolite in perfused cerebellum” value turned out to be 3.6% and the “polar metabolite in perfused cerebrum” value is recorded as 6.9%. Further, the “recovered radioactivity present” value in data set [1] was “about 90%”. Besides, in data set [2], the “Intact tracer in rat plasma” value is 45.5 ± 2.1% and the “Polar metabolites in rat plasma” value is listed as 54.5 ± 2.1%.
With `[11CH3]Oc1ccc(F)cc1C1CCN(c2ccn3c(CC4CC4)nnc3c2Cl)CC1` [[^11C]B-4, 8-chloro-3-(cyclopropylmethyl)-7-[4-[5-fluoro-2-[^11C]methoxyphenyl]-1-piperidinyl]-1,2,4-triazolo[4,3-a]pyridine], in data set [1], the “intact tracer in perfused cerebellum” value was 92.7%, the “intact tracer in perfused cerebrum” value came out at 92.4%, the “polar metabolite in perfused cerebellum” value amounted to 7.3% and the “polar metabolite in perfused cerebrum” value stood at 7.6%. In addition, the “recovered radioactivity present” value in data set [1] was “about 90%”. For the same compound, in data set [2], the “Intact tracer in rat plasma” value is recorded as 41.0 ± 7.1% and the “Polar metabolites in rat plasma” value came out at 59.0 ± 7.1%.
